Several values for one entry are separate records, joined by “and”; a condition that tells them apart may be missing. Equal values may be shown once.
Tests used:
[1] = test system: Russian thistle (SASKR, Salsola kali); assay: Greenhouse postemergence herbicidal effect; format: in vivo
Method in brief: (§1)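 Plants at the second or third true leaf stage, grown at about 23/22 °C day/night with a 14 h photoperiod, were sprayed postemergence. Emulsifiable concentrates held cloquintocet-mexyl safener at 120 g ai/L; rates are g ae/ha (pyridine carboxylate) or g ai/ha (ALS inhibitor). Injury was scored visually against solvent-blank controls at 20-22 d (0-100%).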

[2] = test system: chickweed (STEME, Stellaria media); assay: Greenhouse postemergence herbicidal effect; format: in vivo; settings: for Obs % visual injury: STEME
Method in brief: as §1

[3] = test system: turnip (BRSRR, Brassica rapa); assay: Greenhouse postemergence herbicidal effect; format: in vivo
Method in brief: as §1

[4] = test system: wild pansy (VIOTR, Viola tricolor); assay: Greenhouse postemergence herbicidal effect; format: in vivo; settings: for Obs % visual injury: VIOTR
Method in brief: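 Injury was rated visually after 20-22 d on a 0 (none) to 100% (complete kill) scale relative to solvent-sprayed controls, with sub-irrigation to avoid wash-off. Rates were given in g ae/ha or g ai/ha depending on component.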

[5] = test system: R-PAPRH = Papaver rhoeas (corn poppy), herbicide-resistant; assay: Greenhouse postemergence herbicidal effect; format: in vivo
Method in brief: as §1

[6] = test system: bird's-eye speedwell (VERPE, Veronica persica); assay: Greenhouse postemergence herbicidal effect; format: in vivo
Method in brief: as §1

[7] = test system: cleavers (GALAP, Galium aparine); assay: Greenhouse postemergence herbicidal effect; format: in vivo
Method in brief: as §1

[8] = test system: corn poppy (PAPRH, Papaver rhoeas); assay: Greenhouse postemergence herbicidal effect; format: in vivo
Method in brief: as §1

[9] = test system: cornflower (CENCY, Cyanus segetum); assay: Greenhouse postemergence herbicidal effect; format: in vivo
Method in brief: as §1

[10] = test system: false chamomile (MATIN, Matricaria inodora); assay: Greenhouse postemergence herbicidal effect; format: in vivo
Method in brief: as §1

[11] = test system: field chamomile (ANTAR, Anthemis arvensis); assay: Greenhouse postemergence herbicidal effect; format: in vivo
Method in brief: as §1

[12] = test system: field violet (VIOAR, Viola arvensis); assay: Greenhouse postemergence herbicidal effect; format: in vivo
Method in brief: as §1

[13] = test system: ivyleaf speedwell (VERHE, Veronica hederifolia); assay: Greenhouse postemergence herbicidal effect; format: in vivo
Method in brief: as §1

[14] = test system: purple deadnettle (LAMPU, Lamium purpureum); assay: Greenhouse postemergence herbicidal effect; format: in vivo
Method in brief: as §1

[15] = test system: shepherd's purse (CAPBP, Capsella bursa-pastoris); assay: Greenhouse postemergence herbicidal effect; format: in vivo
Method in brief: as §1

[16] = test system: wild mustard (SINAR, Sinapis arvensis); assay: Greenhouse postemergence herbicidal effect; format: in vivo
Method in brief: as §1

winter wheat (TRZAW) = assay: Greenhouse postemergence crop phytotoxicity; format: in vivo, Triticum aestivum
From the text: (§2) Seeds of the desired test plant species were planted in a 90:10% v/v (volume/volume) mixture of PRO-MIX® BX (Premier Tech Horticulture, Quakertown, PA, USA) and PROFILE® GREENS GRADE™ (Profile Products LLC, Buffalo Grove, IL, USA) planting mixture, which typically has a pH of 5.2 to 6.2 and an organic matter content of at least 50 percent, in plastic pots with a surface area of 103.2 square centimeters (cm^2). In some aspects, to ensure good germination and healthy plants, a fungicide treatment and/or other chemical or physical treatment was applied. The plants were grown for 7-36 days (d) in a greenhouse with an approximate 14-hour (h) photo-period which was maintained at about 23° C. during the day and 22° C. during the night. Nutrients and water were added on a regular basis and supplemental lighting was provided with overhead metal halide 1000-Watt lamps as necessary. The plants were employed for testing when they reached the second or third true leaf stage.
(§3) Emulsifiable concentrates of each of each pyridine carboxylate herbicide (Compound A or Compound B) were prepared at 100 grams acid equivalent per liter (g ae/L). The emulsifiable concentrates also included a safener, cloquintocet-mexyl, at 120 grams active ingredient per liter (g ai/L), unless otherwise noted below. An aliquot of each emulsifiable concentrate was placed in a 25 mL glass vial and diluted with an aqueous mixture of 1.25% (v/v) ACTIROB® B esterified rapeseed oil (Bayer Crop Science, Research Triangle Park, NC, USA) or MSO® Concentrate with LECI-TECH® methylated soybean oil (Loveland Products, Loveland, CO, USA) to obtain concentrated stock solutions at the highest application rate for each herbicide, based upon a 12 milliliter (mL) application volume at a rate of 187 liters per hectare (L/ha). The concentrated stock solutions were further diluted with an aqueous mixture of 1.25% v/v ACTIROB® B or MSO® Concentrate with LECI-TECH® to obtain stock solutions at reduced application rates for each herbicide. Spray solutions of the herbicide combinations (Compound A or Compound B plus ALS herbicide) were prepared by adding weighed amounts or aliquots of the ALS herbicides to the stock solutions of Compound A or Compound B to form 12-mL spray solutions in two- or three-way combinations. […]
(§4) The treated plants and control plants were placed in a greenhouse as described above and watered by sub-irrigation to prevent wash-off of the test compounds. After 20-22 d, the condition of the test plants as compared with that of the control plants was determined visually and scored on a scale of 0 to 100 percent where 0 corresponds to no injury and 100 corresponds to complete kill.

winter barley (HORVW) = assay: Greenhouse postemergence crop phytotoxicity; format: in vivo, Hordeum vulgare
From the text: as §2, §3, §4

[17] = Compound A 10 g/ha (Examples 62-63)
[18] = Compound A 10 g/ha, safener mefenpyr-diethyl

C#CCOC(=O)c1nc(-c2ccc3cc[nH]c3c2F)c(F)c(N)c1Cl [Compound B, propargyl 4-amino-3-chloro-5-fluoro-6-(7-fluoro-1H-indol-6-yl)pyridine-2-carboxylate]
Obs % visual injury ([1]; SASKR, Compound B 10 g/ha): 63% | % visual injury, Obs ([2]; 10 g/ha): 90% | Obs % visual injury ([2]; Compound B 5 g/ha): 85% | Obs % visual injury ([2]; Compound B 10 g/ha): 95% | Obs % visual injury ([3]; Compound B 10 g/ha): 85% | % visual injury, Obs ([4]; 10 g/ha): 8% | Obs % visual injury ([4]; Compound B 5 g/ha): 20% | Obs % visual injury ([4]; Compound B 10 g/ha): 18%

COc1ncc(F)c2nc(S(=O)(=O)Nc3c(F)cccc3F)nn12 [Florasulam, florasulam]
% visual injury ([5]; Florasulam 5 g/ha): 75% | % visual injury ([1]; Florasulam 5 g/ha): 85% | % visual injury ([6]; Florasulam 5 g/ha): 10% | % visual injury ([2]; Florasulam 5 g/ha): 100% | % visual injury ([7]; Florasulam 5 g/ha): 95% | % visual injury ([8]; Florasulam 5 g/ha): 97% | % visual injury ([9]; Florasulam 5 g/ha): 70% | % visual injury ([10]; Florasulam 5 g/ha): 100% | % visual injury ([11]; Florasulam 5 g/ha): 70% | % visual injury ([12]; Florasulam 5 g/ha): 10% | % visual injury ([13]; Florasulam 5 g/ha): 5% | % visual injury ([14]; Florasulam 5 g/ha): 10% | % visual injury ([15]; Florasulam 5 g/ha): 80% | Obs % visual injury ([3]; Florasulam 5 g/ha): 95% | % visual injury Obs ([16]; Florasulam 3.75 g/ha): 85% | % visual injury ([16]; Florasulam 5 g/ha): 95% | % visual injury ([4]; Florasulam 5 g/ha): 10% | % visual injury (winter wheat (TRZAW); Florasulam 5 g/ha): 0% | % visual injury (winter barley (HORVW); Florasulam 5 g/ha): 0%

N#CCOC(=O)c1nc(-c2ccc3cc[nH]c3c2F)c(F)c(N)c1Cl [Compound A, cyanomethyl 4-amino-3-chloro-5-fluoro-6-(7-fluoro-1H-indol-6-yl)pyridine-2-carboxylate]
% visual injury ([5]; Compound A 10 g/ha): 93% | % visual injury ([5]; Compound A 15 g/ha): 93% | % visual injury, Obs ([1]; 10 g/ha): 60% and 63% | % visual injury ([1]; Compound A 10 g/ha): 70% and 63% | % visual injury Obs ([1]; Compound A 10 g/ha): 60% and 63% | % visual injury, Obs ([1]; Compound A 10 g/ha): 65% | SASKR % visual injury Obs [1, 17]: 65% | % visual injury ([1]; Compound A 15 g/ha): 75% | % visual injury, Obs ([1]; SASKR, Compound A 10 g/ha): 60% | Obs % visual injury ([1]; SASKR, Compound A 10 g/ha): 63% and 65% | Obs % visual injury ([1]; SASKR, Compound A 10 g/ha (Table 65)): 65% | Obs % visual injury ([1]; SASKR, Compound A 10 g/ha (Table 67)): 58% | Obs % visual injury ([1]; SASKR, Compound A 15 g/ha (Table 67)): 65% | % visual injury ([6]; Compound A 10 g/ha): 93% | % visual injury ([6]; Compound A 15 g/ha): 95% | % visual injury ([2]; Compound A 10 g/ha): 100% | % visual injury, Obs [2, 18]: 83% | STEME % visual injury Obs [2, 18]: 83% | % visual injury ([2]; Compound A 15 g/ha): 100% | % visual injury ([7]; Compound A 10 g/ha): 25% | % visual injury ([7]; Compound A 15 g/ha): 35% | % visual injury ([8]; Compound A 10 g/ha): 100% | % visual injury ([8]; Compound A 15 g/ha): 100% | % visual injury ([9]; Compound A 10 g/ha): 93% | % visual injury ([9]; Compound A 15 g/ha): 95% | % visual injury ([10]; Compound A 10 g/ha): 100% | % visual injury ([10]; Compound A 15 g/ha): 100% | % visual injury ([11]; Compound A 10 g/ha): 90% | % visual injury ([11]; Compound A 15 g/ha): 95% | % visual injury ([12]; Compound A 10 g/ha): 5% | % visual injury ([12]; Compound A 15 g/ha): 5% | % visual injury ([13]; Compound A 10 g/ha): 80% | % visual injury ([13]; Compound A 15 g/ha): 80% | % visual injury ([14]; Compound A 10 g/ha): 75% | % visual injury ([14]; Compound A 15 g/ha): 75% | % visual injury ([15]; Compound A 10 g/ha): 70% | % visual injury ([15]; Compound A 15 g/ha): 80% | % visual injury, Obs ([16]; 10 g/ha): 90% and 92% and 88% | % visual injury ([16]; Compound A 10 g/ha): 95% and 90% and 88% and 93% | % visual injury Obs ([16]; Compound A 10 g/ha): 93% and 92% and 88% | % visual injury, Obs ([16]; Compound A 10 g/ha): 100% | SINAR % visual injury Obs [16, 17]: 100% | % visual injury ([16]; Compound A 15 g/ha): 97% and 93% | % visual injury Obs ([16]; Compound A 15 g/ha): 93% | % visual injury, Obs ([16]; SINAR, Compound A 10 g/ha): 93% | Obs % visual injury ([16]; SINAR, Compound A 10 g/ha): 93% and 88% and 100% | Obs % visual injury ([16]; SINAR, Compound A 10 g/ha (Table 65)): 100% | Obs % visual injury ([16]; SINAR, Compound A 10 g/ha (Table 66)): 88% | % visual injury, Obs ([16]; SINAR, Compound A 15 g/ha): 93% | Obs % visual injury ([16]; SINAR, Compound A 15 g/ha): 93% | % visual injury, Obs ([4]; 10 g/ha): 23% | % visual injury ([4]; Compound A 10 g/ha): 10% | % visual injury, Obs [4, 18]: 18% | VIOTR % visual injury Obs [4, 18]: 18% | % visual injury ([4]; Compound A 15 g/ha): 10% | % visual injury (winter wheat (TRZAW); Compound A 10 g/ha): 0% | % visual injury (winter wheat (TRZAW); Compound A 15 g/ha): 0% | % visual injury (winter barley (HORVW); Compound A 10 g/ha): 0% | % visual injury (winter barley (HORVW); Compound A 15 g/ha): 0%
